Measurements reported in ChEMBL document CHEMBL5338712, “Influence of chain length on the anticancer activity of the antimicrobial peptide CAMEL with fatty acid modification” (Eur J Med Chem, 2022).
The source made the active and inactive calls. Where a SMILES comes first, the peptide text is derived from it. The star is where a group is joined. Decanoyl = CCCCCCCCCC(=O)*; Octanoyl = CCCCCCCC(=O)*

Experiments:
[1] = Self-assembly behavior of compound in saline solution assessed as critical micelle concentration by spectrophotometer analysis; assay type: physicochemical; conditions: buffer
[2] = molecular target: trypsin (Homo sapiens, UniProt P07477+P07478+P35030); assay: Stability of compound assessed as trypsin (unknown origin)-mediated compound degradation measured upto 6 hrs by RP-HPLC analysis; assay type: ADME, protein assay; conditions: trypsin (enzyme solution), read-out: Drug degradation
[3] = tested on: B16-F10; assay: Cytotoxicity against mouse B16-F10 cells assessed as reduction in cell viability at 1.25 to 20 uM measured after 24 hrs by MTT assay; assay type: functional, cell-based; conditions: dose 1.25-20 µM
[4] = tested on: B16-F10; assay: Membrano-lytic activity in mouse B16-F10 cell membrane at 1.25 to 20 uM measured after 1 hr by LDH leakage assay; assay type: cell-based; conditions: dose 1.25-20 µM
[5] = tested on: B16-F10; assay: Membrano-lytic activity in mouse B16-F10 cell membrane measured after 1 hr by LDH leakage assay; assay type: cell-based; conditions: dose 1.25-20 µM
[6] = tested on: B16-F10; assay: Cytotoxicity against mouse B16-F10 cells assessed as reduction in cell viability measured after 1 hrs by MTT assay; assay type: functional, cell-based; conditions: dose 1.25-20 µM
[7] = tested on: Staphylococcus aureus; assay: Antibacterial activity against Staphylococcus aureus ATCC […] assessed as reduction in bacterial growth measured for 18 hrs by serial dilution method; assay type: functional
[8] = tested on: Escherichia coli; assay: Antibacterial activity against Escherichia coli ATCC 25922 assessed as reduction in bacterial growth measured for 18 hrs by serial dilution method; assay type: functional
[9] = tested on: B16-F10; assay: Induction of apoptosis in mouse B16-F10 cells assessed as activation of caspase-3 incubated for 24 hrs by microplate reader analysis; assay type: functional, cell-based
[10] = tested on: B16-F10; assay: Antitumor activity against mouse B16-F10 cells implanted in intratumorally dosed C57BL/6 mouse assessed as reduction in tumor volume administered for 3 days by vernier caliper method; assay type: functional, organism-based; conditions: time 3.0 day
[11] = tested on: B16-F10; assay: Induction of necroptosis in mouse B16-F10 cells assessed as cell death at 5 to 20 uM measured for 4 to 24 hrs in presence of Nec-1; assay type: functional, cell-based; conditions: dose 5-20 µM, time 4-24 hrs
[12] = tested on: B16-F10; assay: Antiproliferative activity against mouse B16-F10 cells assessed as inhibition of cell viability by measuring ATP level at 10 uM measured for 4 to 24 hrs; assay type: functional, cell-based; conditions: time 4-24 hrs
[13] = tested on: B16-F10; assay: Induction of cell membrane disruption in mouse B16-F10 cells at 20 uM measured for 30 mins by PI staining based microplate reader assay
[14] = Toxicity in C57BL/6 […] mouse implanted with mouse B16-F10 cells assessed as animal death administered intratumorally; assay type: cell-based; conditions: in vivo, other, route it(Intratumoral)
[15] = tested on: B16-F10; assay: Induction of morphological changes in mouse B16-F10 cells assessed as cell rounding at 20 uM incubated for 30 mins by microscopic analysis; assay type: functional, cell-based
[16] = tested on: B16-F10; assay: Disruption of membrane integrity in mouse B16-F10 cells at 10 uM measured after 1 hr by propidium iodide staining based laser scanning microscopic analysis; assay type: cell-based
[17] = tested on: B16-F10; assay: Induction of mitochondrial membrane potential loss in mouse B16-F10 cells assessed as decrease in fluorescence intensity at 10 uM measured at 4 hrs by flow cytometry analysis; assay type: functional, cell-based
[18] = tested on: B16-F10; assay: Induction of ROS production in mouse B16-F10 cells at 10 uM measured for 0.5 to 4 hrs by MitoSOX red dye based microplate reader analysis; assay type: functional, cell-based; conditions: time 0.5-4 hrs
[19] = tested on: B16-F10; assay: Induction of morphological changes in mouse B16-F10 cells assessed as cell bursting at 20 uM incubated for 30 mins by microscopic analysis; assay type: functional, cell-based
[20] = tested on: B16-F10; assay: Induction of necroptosis in mouse B16-F10 cells assessed as increase in ROS level; assay type: functional, cell-based
[21] = tested on: B16-F10; assay: Induction of mitochondrial membrane potential loss in mouse B16-F10 cells assessed as decrease in fluorescence intensity at 10 uM measured at 0.5 to 4 hrs by flow cytometry analysis; assay type: functional, cell-based; conditions: time 0.5-4 hrs
[22] = tested on: B16-F10; assay: Induction of cell membrane disruption in mouse B16-F10 cells at 20 uM by PI staining based microplate reader assay; conditions: time 30.0 min, TDE = time-dependent effect
[23] = tested on: B16-F10; assay: Induction of morphological changes in mouse B16-F10 cells assessed as cell swelling at 20 uM incubated for 30 mins by microscopic analysis; assay type: functional, cell-based
[24] = tested on: B16-F10; assay: Induction of cell cycle arrest in mouse B16-F10 cells assessed as accumulation at G0/G1 phase at 10 uM and measured after 24 hrs PI staining based by flow cytometry; assay type: functional
[25] = tested on: B16-F10; assay: Induction of necrotic cell death in mouse B16-F10 at 10 uM measured after 1 to 24 hrs; assay type: functional, cell-based; conditions: time 1-24 hrs
[26] = tested on: B16-F10; assay: Membrano-lytic activity in mouse B16-F10 cell membrane at 20 uM measured after 0.5 hr by LDH leakage assay; assay type: cell-based
[27] = tested on: B16-F10; assay: Induction of apoptosis in mouse B16-F10 cells assessed as decrease in ATP level; assay type: functional, cell-based
[28] = tested on: B16-F10; assay: Membrano-lytic activity in mouse B16-F10 cell membrane at 20 uM measured at 0.5 to 4 hrs by LDH leakage assay; assay type: cell-based; conditions: time 0.5-4 hrs
[29] = tested on: B16-F10; assay: Cytotoxicity against mouse B16-F10 cells assessed as induction of cell death measured for 4 to 24 hrs by MTT assay; assay type: functional, cell-based; conditions: time 4-24 hrs
[30] = tested on: B16-F10; assay: Membrano-lytic activity in mouse B16-F10 cell membrane at 1.25 to 20 uM measured after 4 hr by LDH leakage assay; assay type: cell-based; conditions: dose 1.25-20 µM
[31] = tested on: B16-F10; assay: Induction of ROS production in mouse B16-F10 cells at 10 uM measured for 0.5 to 4 hrs by DCFH-DA dye based microplate reader analysis; assay type: functional, cell-based; conditions: time 0.5-4 hrs

CCCCCCCCCC(=O)N[C@@H](CCCCN)C(=O)N[C@@H](Cc1c[nH]c2ccccc12)C(=O)N[C@@H](CCCCN)C(=O)N[C@@H](CC(C)C)C(=O)N[C@@H](Cc1ccccc1)C(=O)N[C@@H](CCCCN)C(=O)N[C@@H](CCCCN)C(=O)N[C@H](C(=O)NCC(=O)N[C@@H](C)C(=O)N[C@H](C(=O)N[C@@H](CC(C)C)C(=O)N[C@@H](CCCCN)C(=O)N[C@H](C(=O)N[C@@H](CC(C)C)C(N)=O)C(C)C)C(C)C)[C@@H](C)CC (Decanoyl-KWKLFKKIGAVLKVL-NH2)
32.61 µM: CMC [1]

CCCCCCCC(=O)N[C@@H](CCCCN)C(=O)N[C@@H](Cc1c[nH]c2ccccc12)C(=O)N[C@@H](CCCCN)C(=O)N[C@@H](CC(C)C)C(=O)N[C@@H](Cc1ccccc1)C(=O)N[C@@H](CCCCN)C(=O)N[C@@H](CCCCN)C(=O)N[C@H](C(=O)NCC(=O)N[C@@H](C)C(=O)N[C@H](C(=O)N[C@@H](CC(C)C)C(=O)N[C@@H](CCCCN)C(=O)N[C@H](C(=O)N[C@@H](CC(C)C)C(N)=O)C(C)C)C(C)C)[C@@H](C)CC (Octanoyl-KWKLFKKIGAVLKVL-NH2)
8 µM: MIC [8]
70.2%: metabolised at 6 h [2]
4 µM: MIC [7]
active: Activity [3] | Activity [4] | Activity [5] Dose-Dependent Effect | Activity [6] Dose-Dependent Effect

H-KWKLFKKIGAVLKVL-NH2
active: Activity [10] | Activity [3] | Activity [11] | Activity [12] | Activity [13] | Activity [15] | Activity [16] | Activity [5] Dose-Dependent Effect | Activity [18] | Activity [19] | Activity [20] | Activity [21] | Activity [22] Tde | Activity [23] | Activity [25] | Activity [26] | Activity [30] | Activity [6] Dose-Dependent Effect | Activity [31]
Non-Toxic: Activity [14]
4 µM: MIC [7]
32 µM: MIC [8]
100%: metabolised at 6 h [2]
inactive: Activity [9] | Activity [17] | Activity [24] | Activity [27] | Activity [28] | Activity [29]
